Data taken from article PMC6562865, “Vitis vinifera L. Leaf Extract Inhibits In Vitro Mediators of Inflammation and Oxidative Stress Involved in Inflammatory-Based Skin Diseases” (Antioxidants, 2019).
Where two headings read alike, the source gives them in different places.

Columns and labels:
IL-8 = IL-8 release in HaCaT cells (ELISA); type: cell-based, human; details: for IL-8 release induced by TNF-α, pure compounds: 0.1–100 μM, up to the maximum concentration tested (100 μM)
Experimental: Cells were grown in 24-well plates for 48 h (30,000 cells per well) before the cytokine treatment. IL-8 was quantified using a Human Interleukin-8 ELISA Development Kit as previously described. Preliminary time-course experiments were performed to set the best conditions for further experiments. HaCaT were treated with TNF-α (10 ng/mL), LPS (5 μg/mL), or H2O2 (100 μM), for 3, 6, 24, and 30 h. The IL-8 secretion induced by TNF-α or LPS was tested after 6 h of treatment, while the 24-h time point was chosen for H2O2. Epigallocatechin-3-gallate (EGCG) (20 μM) was used as the reference inhibitor of IL-8 secretion.
(§1) HaCaT cells were grown in 24-well plates for 48 h (30,000 cells per well), washed with phosphate-buffered saline (PBS), and exposed to UVB (40 mJ/cm^2) light source (Triwood 31/36, W36, V230, Helios Italquartz, Milano, Italy) in a glass bath. Radiation time (about 50 s) was adjusted for each experimental day, measuring energy emission by the LP 471 UVB probe (Delta OHM, Padova, Italy). After radiation, serum free fresh culture medium was immediately added. For the evaluation of IL-8 release, cells were treated for additional 9 h, a time point selected in preliminary time-course experiments. For NF-κB (p65) translocation, HaCaT cells were treated for 1 h after UVB radiation. EGCG (20 μM) was used as reference inhibitor.

IL-8 promoter = IL-8 promoter activity, IL-8-LUC transient transfection luciferase assay in HaCaT cells; type: cell-based, human; details: transfected HaCaT, 6 h, 20 μM
Experimental: (§2) HaCaT cells were plated in 24-well plates and transiently transfected with the plasmid NF-κB-LUC or native IL-8-LUC, both at 250 ng per well, using Lipofectamine® 2000, according to previous studies. Sixteen hours later, the cells were treated for 6 h with increasing concentrations of VVWE in the presence of the pro-inflammatory mediators (TNF-α at 10 ng/mL or LPS at 5 μg/mL). After six hours, cells were harvested and the luciferase assay was performed using the BriteliteTM Plus reagent (PerkinElmer Inc., Massachusetts, USA) according to the manufacturer’s instructions. Data were expressed considering 100% of the luciferase activity related to the cytokine-induced promoter activity.

NF-κB = test: NF-κB-driven transcription, NF-κB-LUC transient transfection luciferase assay in HaCaT cells; type: cell-based, human; details: transfected HaCaT, 6 h, 20 μM
Experimental: as §2

NF-κB (p65) = NF-κB (p65) nuclear translocation in HaCaT cells; type: cell-based, human; details: 20 μM
Experimental: For the evaluation of the NF-κB (p65) translocation, HaCaT were plated at the concentration of 3 × 10^6 cells/mL in 100-mm plates with fresh complete medium. After 48 h, cells were treated for 1 h with the inflammatory mediators (TNF-α at 10 ng/mL or LPS at 5 μg/mL) and the extract (10–50 μg/mL) under study, using FBS-free medium. Nuclear extracts were prepared using the Nuclear Extraction Kit from the Cayman Chemical Company (Ann Arbor, MI, USA) as previously described.
Data were expressed considering 100% of the absorbance related to the cytokine-induced NF-κB nuclear translocation. EGCG (20 μM) was used as the reference inhibitor of the NF-κB nuclear translocation. The results are the mean ± SD of three experiments in triplicate.
as §1

VEGF = VEGF release in HaCaT cells (ELISA); type: cell-based, human; details: 20 μM
Experimental: Cells were grown in 24-well plates for 48 h (30,000 cells per well) before challenge with the pro-inflammatory mediator. VEGF was quantified by the Human VEGF ELISA Development Kit. Briefly, Corning 96-well EIA/RIA plates (Sigma-Aldrich, Milan, Italy) were coated with the antibody provided in the ELISA Kit (PeproTech Inc., London, UK) overnight at 4 °C. After blocking the reaction, 300 μL of samples were transferred into wells at room temperature for 2 h. The amount of VEGF in the samples was detected by spectroscopy (signal read: 450 nm, 0.1 s) as described above. The quantitative measurement of VEGF was done using an optimized standard curve supplied with the ELISA set (100–2000 pg/mL). […] EGCG (20 μM) was used as the reference inhibitor of VEGF secretion.

MMP-9 = MMP-9 release in HaCaT cells (ELISA); type: cell-based, human; details: 20 μM
Experimental: MMP-9 secretion was performed on HaCaT cells treated with TNF-α (10 ng/mL) and (LPS 5 μg/mL) for 3, 6, 24, and 48 h. Cells were grown in 24-well plates (30,000 cell/well) for 48 h, before the treatment. Human MMP-9 ELISA Kit from RayBio® (Norcross GA, USA) was used to quantify MMP-9 secretion according to manufacturer’s instructions. 300 μL of samples in duplicate were transferred into a 96-well plate coated with anti-human MMP-9 and incubated overnight at 4 °C with gentle shaking. MMP-9 secreted was detected by the use of biotinylated and streptavidin–horseradish peroxidase (HRP) conjugate antibodies as previously described. The quantitative measurement of MMP-9 was done using an optimized standard curve supplied with the ELISA kit (8.23–6000 pg/mL). The MMP-9 secretion reached the maximum at 24 h for both TNF-α and LPS. VVWE was tested at 10–50 μg/mL in the presence of stimuli and between 2.5–200 μg/mL without the pro-inflammatory mediators.

[1] = In vitro skin permeation study, Franz diffusion cell method; type: in vitro ADME, human; details: for recovery: human
Excerpt: VVWE was characterized by a validated HPLC-DAD method as previously described. Briefly, two different HPLC methods coupled with a Diode Array Detector (DAD) have been used, the first for anthocyanin detection at 520 nm by the use of a Synergi 4u MAX-RP 80 Å column (250 × 4.60 mm × 4 μm) (Phenomenex, Torrance, CA, USA) and the second for flavonols and caffeic acid derivative detection at 360 nm by Synergi 4u MAX-RP 80 Å column (250 × 2 mm × 4 μm) (Phenomenex, Torrance, CA, USA). The anthocyanins standards, hyperoside and kaempferol-3-O-glucoside, were from Extrasynthese (Genay, France); all the other standards and solvents were bought from Sigma-Aldrich (St. Louis, MO, USA).
The human epidermis membrane used for in vitro permeation studies was obtained from the abdominal skin of a single donor. The epidermis was prepared according to the heat separation method, as previously reported.
Ex vivo skin permeation study: the study was performed using the Franz diffusion cell method. The human epidermis was mounted carefully on the receiver compartment of the Franz’s cell with the stratum corneum side in contact with donor solution. The receiver compartment was filled with freshly prepared degassed HCl 0.1 M solution (receiver phase). VVWE (150 mg) solubilized in 0.1 M HCl:EtOH (50:50, v/v) was loaded in the donor compartment (0.5 mL). At predetermined intervals (1, 5, 7, 24, 32, 48 h), 0.2-mL samples were removed from the receiver compartment and immediately replaced with fresh receiver phase. Sink conditions were maintained throughout the experiment. The samples were assayed by HPLC analysis. Four parallel experiments were performed.

[2] = human epidermis, Franz cell, 150 mg VVWE, four replicates
[3] = µg per g VVWE, human epidermis, Franz cell, 150 mg VVWE
[4] = µg per g VVWE, human epidermis, Franz cell, 150 mg VVWE, 48 h, receiver phase
[5] = human epidermis, Franz cell, 150 mg VVWE, four replicates, read-out: Permeated Amount (% Recovery) (converted)
[6] = human epidermis, Franz cell, 150 mg VVWE, four replicates, read-out: Retained Amount in the Epidermidis (% Recovery) (converted)

Epigallocatechin-3-gallate [EGCG]
inhibition of LPS-induced IL-8 secretion (IL-8; LPS 5 μg/mL, 6 h, 20 μM): 84.9% | inhibition of TNF-α-induced IL-8 secretion (IL-8; TNF-α 10 ng/mL, 6 h, 20 μM): 62.1% | inhibition of UVB-induced IL-8 secretion (IL-8; UVB 40 mJ/cm^2, 9 h, 20 μM): 61.7% | inhibition of LPS-induced IL-8 promoter activity (IL-8 promoter; LPS 5 μg/mL): 33.3% | inhibition of TNF-α-induced IL-8 promoter activity (IL-8 promoter; TNF-α 10 ng/mL): 35.9% | inhibition of LPS-induced NF-κB-driven transcription (NF-κB; LPS 5 μg/mL): 29.9% | inhibition of TNF-α-induced NF-κB-driven transcription (NF-κB; TNF-α 10 ng/mL): 59.9% | inhibition of LPS-induced NF-κB nuclear translocation (NF-κB (p65); LPS 5 μg/mL, 1 h): 53.2% | inhibition of TNF-α-induced NF-κB nuclear translocation (NF-κB (p65); TNF-α 10 ng/mL, 1 h): 62.4% | inhibition of UVB-induced NF-κB nuclear translocation (NF-κB (p65); UVB 40 mJ/cm^2, 1 h): 39.1% | inhibition of H2O2-induced VEGF secretion (VEGF; H2O2 100 μM, 24 h): 100% | inhibition of LPS-induced VEGF secretion (VEGF; LPS 5 μg/mL, 30 h): 100% | inhibition of TNF-α-induced VEGF secretion (VEGF; TNF-α 10 ng/mL, 24 h): 78.7% | inhibition of LPS-induced MMP-9 secretion (MMP-9; LPS 5 μg/mL, 30 h): no inhibition | inhibition of TNF-α-induced MMP-9 secretion (MMP-9; TNF-α 10 ng/mL, 24 h): 38.0%

OC[C@H]1O[C@@H](Oc2cc3c(O)cc(O)cc3[o+]c2-c2cc(O)c(O)c(O)c2)[C@H](O)[C@@H](O)[C@@H]1O [Delphinidin 3-O-glucoside]
Permeated Amount (% Recovery) [1, 2]: 0.050% | Retained Amount in the Epidermidis (% Recovery) [1, 2]: 0.004% | Retained Amount in the Epidermidis ± SD [1, 3]: 0.04 ± 0.08 µg/g | Permeated Amount ± SD [1, 4]: 0.48 ± 0.68 µg/g

COc1cc(-c2[o+]c3cc(O)cc(O)c3cc2O[C@@H]2O[C@H](CO)[C@@H](O)[C@H](O)[C@H]2O)cc(O)c1O [Petunidin 3-O-glucoside]
Permeated Amount (% Recovery) [1]: 0.058% | Permeated Amount ± SD [1]: 0.38 ± 0.53 µg/g

OC[C@H]1O[C@@H](Oc2cc3c(O)cc(O)cc3[o+]c2-c2ccc(O)c(O)c2)[C@H](O)[C@@H](O)[C@@H]1O [Cyanidin 3-O-glucoside]
Permeated Amount (% Recovery) [1, 2]: 0.071% | Retained Amount in the Epidermidis (% Recovery) [1, 2]: 0.013% | Retained Amount in the Epidermidis ± SD [1, 3]: 0.30 ± 0.60 µg/g | Permeated Amount ± SD [1, 4]: 1.63 ± 2.08 µg/g

COc1cc(-c2[o+]c3cc(O)cc(O)c3cc2O[C@@H]2O[C@H](CO)[C@@H](O)[C@H](O)[C@H]2O)cc(OC)c1O [Malvidin 3-O-glucoside]
Permeated Amount (% Recovery) [1, 2]: 0.072% | Retained Amount in the Epidermidis (% Recovery) [1, 2]: 0.023% | Retained Amount in the Epidermidis ± SD [1, 3]: 0.29 ± 0.58 µg/g | Permeated Amount ± SD [1, 4]: 0.92 ± 1.22 µg/g

O=C(O)[C@H]1O[C@@H](Oc2c(-c3ccc(O)c(O)c3)oc3cc(O)cc(O)c3c2=O)[C@H](O)[C@@H](O)[C@@H]1O [Quercetin 3-O-glucuronide]
IL-8 release induced by TNF-α, pure compounds (IL-8): failed to reduce IL-8 release | Permeated Amount (% Recovery) [1]: 0.177%

O=c1c(O[C@@H]2O[C@H](CO)[C@H](O)[C@H](O)[C@H]2O)c(-c2ccc(O)c(O)c2)oc2cc(O)cc(O)c12 [Hyperoside]
recovery [1, 5]: 0.02% | recovery [1, 6]: 0.058% | Retained Amount in the Epidermidis ± SD [1, 3]: 1.34 ± 1.43 µg/g | Permeated Amount ± SD [1, 4]: 0.47 ± 0.68 µg/g

COc1cc(-c2[o+]c3cc(O)cc(O)c3cc2O[C@@H]2O[C@H](CO)[C@@H](O)[C@H](O)[C@H]2O)ccc1O [Peonidin 3-O-glucoside]
Permeated Amount (% Recovery) [1, 2]: 0.114% | Retained Amount in the Epidermidis (% Recovery) [1, 2]: 0.030% | Retained Amount in the Epidermidis ± SD [1, 3]: 0.58 ± 1.17 µg/g | Permeated Amount ± SD [1, 4]: 2.17 ± 2.72 µg/g

O=c1c(O[C@@H]2O[C@H](CO)[C@@H](O)[C@H](O)[C@H]2O)c(-c2ccc(O)c(O)c2)oc2cc(O)cc(O)c12 [Quercetin 3-O-glucoside]
IL-8 release induced by TNF-α, pure compounds (IL-8): failed to reduce IL-8 release | recovery [1, 5]: 0.04% | recovery [1, 6]: 0.063% | Retained Amount in the Epidermidis ± SD [1, 3]: 13.58 ± 15.88 µg/g | Permeated Amount ± SD [1, 4]: 8.74 ± 9.50 µg/g | Permeated Amount ± SD ([1]; µg per g VVWE, human epidermis, Franz cell, 150 mg VVWE, 48 h, receiver phase, listed as quercetin 3-O-glucoside): 8.74 µg/g | Retained Amount in the Epidermidis ± SD ([1]; µg per g VVWE, human epidermis, Franz cell, 150 mg VVWE, listed as quercetin 3-O-glucoside): 13.58 µg/g

O=c1c(O[C@@H]2O[C@H](CO)[C@@H](O)[C@H](O)[C@H]2O)c(-c2ccc(O)cc2)oc2cc(O)cc(O)c12 [Kaempferol 3-O-glucoside]
Permeated Amount (% Recovery) [1, 2]: 0.055% | Retained Amount in the Epidermidis (% Recovery) [1, 2]: 0.094% | Retained Amount in the Epidermidis ± SD [1, 3]: 3.53 ± 3.90 µg/g | Permeated Amount ± SD [1, 4]: 2.09 ± 1.70 µg/g

C[C@@H]1O[C@@H](OC[C@H]2O[C@@H](Oc3c(-c4ccc(O)c(O)c4)oc4cc(O)cc(O)c4c3=O)[C@H](O)[C@@H](O)[C@@H]2O)[C@H](O)[C@H](O)[C@H]1O [Rutin]
recovery [1, 5]: 0.023% | recovery [1, 6]: 0.061% | Retained Amount in the Epidermidis ± SD [1, 3]: 0.80 ± 0.91 µg/g | Permeated Amount ± SD [1, 4]: 0.30 ± 0.35 µg/g

O=C(/C=C/c1ccc(O)c(O)c1)O[C@@H](C(=O)O)[C@@H](O)C(=O)O [Caftaric acid]
IL-8 release induced by TNF-α, pure compounds (IL-8): failed to reduce IL-8 release | recovery [1, 5]: 0.476% | recovery [1, 6]: 0.102% | Retained Amount in the Epidermidis ± SD [1, 3]: 10.20 ± 9.00 µg/g | Permeated Amount ± SD [1, 4]: 47.59 ± 27.64 µg/g | Permeated Amount ± SD ([1]; µg per g VVWE, human epidermis, Franz cell, 150 mg VVWE, 48 h, receiver phase, listed as caftaric acid): 47.59 µg/g | Retained Amount in the Epidermidis ± SD ([1]; µg per g VVWE, human epidermis, Franz cell, 150 mg VVWE, listed as caftaric acid): 10.20 µg/g
